Data published in PubChem BioAssay AID2060506 (Molecular Pharmacology Branch, DTP, NCI, 2025).

System: 598228-144-R-J1-PDC complex spheroid viability
Experiment: Anticancer human tumor 598228-144-R-J1-PDC patient-derived serous endometrial adenocarcinoma cell line growth inhibition [GQUAD]
Conditions: for IC50: curve of first compound; for viability, T/C: stronger effect = lower value
How it was run: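 Viability of tumor cells grown as complex spheroids with endothelial and stromal cells, exposed to drug combinations. Top concentration at or near clinical Cmax (else 10 microM), diluted in half-log increments.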

[1] = second compound 0.0316 µM, first compound 0.0316 µM
[2] = second compound 0.0316 µM, first compound 0.1 µM
[3] = second compound 0.0316 µM, first compound 0.316 µM
[4] = second compound 0.0316 µM, first compound 1 µM
[5] = second compound 0.0316 µM, first compound 3.16 µM
[6] = second compound 0.0316 µM, first compound 10 µM
[7] = second compound 0.1 µM, first compound 0.0316 µM
[8] = second compound 0.1 µM, first compound 0.1 µM
[9] = second compound 0.1 µM, first compound 0.316 µM
[10] = second compound 0.1 µM, first compound 1 µM
[11] = second compound 0.1 µM, first compound 3.16 µM
[12] = second compound 0.1 µM, first compound 10 µM
[13] = second compound 0.316 µM, first compound 0.0316 µM
[14] = second compound 0.316 µM, first compound 0.1 µM
[15] = second compound 0.316 µM, first compound 0.316 µM
[16] = second compound 0.316 µM, first compound 1 µM
[17] = second compound 0.316 µM, first compound 3.16 µM
[18] = second compound 0.316 µM, first compound 10 µM
[19] = second compound 1 µM, first compound 0.0316 µM
[20] = second compound 1 µM, first compound 0.1 µM
[21] = second compound 1 µM, first compound 0.316 µM
[22] = second compound 1 µM, first compound 1 µM
[23] = second compound 1 µM, first compound 3.16 µM
[24] = second compound 1 µM, first compound 10 µM
[25] = second compound 3.16 µM, first compound 0.0316 µM
[26] = second compound 3.16 µM, first compound 0.1 µM
[27] = second compound 3.16 µM, first compound 0.316 µM
[28] = second compound 3.16 µM, first compound 1 µM
[29] = second compound 3.16 µM, first compound 3.16 µM
[30] = second compound 3.16 µM, first compound 10 µM
[31] = second compound 10 µM, first compound 0.0316 µM
[32] = second compound 10 µM, first compound 0.1 µM
[33] = second compound 10 µM, first compound 0.316 µM
[34] = second compound 10 µM, first compound 1 µM
[35] = second compound 10 µM, first compound 3.16 µM
[36] = second compound 10 µM, first compound 10 µM
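Note: spheroids exposed to the agents for one week before reading.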
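Throughout, for viability, T/C: percent of vehicle DMSO control viability so 100% = untreated growth.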

Q: What does the source list for COc1ncnc(C2CC2)c1-c1ncc2cnn(Cc3ccc(-c4nc(C(F)(F)F)cn4C(C)C)cc3)c2n1 + Cc1[nH]c2ccc(F)cc2c1-c1nc2c3cccnc3c3ncccc3c2[nH]1?
A: IC50 (second compound 0.0316 µM): > 10 µM; IC50 (second compound 0.1 µM): > 10 µM; IC50 (second compound 0.316 µM): > 10 µM; IC50 (second compound 1 µM): > 10 µM; IC50 (second compound 3.16 µM): < 0.0316 µM; IC50 (second compound 10 µM): > 10 µM; viability, T/C [1]: 130%; viability, T/C [2]: 124%; viability, T/C [3]: 125%; viability, T/C [4]: 93.1%; viability, T/C [5]: 119%; viability, T/C [6]: 112%; viability, T/C [7]: 116%; viability, T/C [8]: 94.5%; viability, T/C [9]: 103%; viability, T/C [10]: 91.8%; viability, T/C [11]: 114%; viability, T/C [12]: 130%; viability, T/C [13]: 94.3%; viability, T/C [14]: 93.3%; viability, T/C [15]: 82%; viability, T/C [16]: 93.1%; viability, T/C [17]: 126%; viability, T/C [18]: 105%; viability, T/C [19]: 51.1%; viability, T/C [20]: 76.1%; viability, T/C [21]: 74.5%; viability, T/C [22]: 58%; viability, T/C [23]: 66.2%; viability, T/C [24]: 78.3%; viability, T/C [25]: 38%; viability, T/C [26]: 31.1%; viability, T/C [27]: 39.2%; viability, T/C [28]: 34.2%; viability, T/C [29]: 41.8%; viability, T/C [30]: 38.7%; viability, T/C [31]: 65%; viability, T/C [32]: 65%; viability, T/C [33]: 69.6%; viability, T/C [34]: 57.2%; viability, T/C [35]: 77.7%; viability, T/C [36]: 105%

Q: With CC(C)n1c(=O)n(C)c2cnc3cc(F)c(-c4ccc(OCCCN5CCCCC5)nc4)cc3c21 + Cc1cnc(CNC(=O)c2c(=O)c3ccc(N4CCCN(C)CC4)nc3n3c2sc2ccccc23)cn1 as the molecule, how does the IC50 (second compound 0.0316 µM) read?
A: 8.28 µM

Q: What about the IC50 (second compound 0.1 µM) of the same molecule?
A: 0.793 µM

Q: What about the IC50 (second compound 0.316 µM) of the same molecule?
A: 3.55 µM

Q: What about the IC50 (second compound 1 µM) of the same molecule?
A: 2.62 µM

Q: And the IC50 (second compound 3.16 µM)?
A: < 0.0316 µM

Q: And the IC50 (second compound 10 µM)?
A: < 0.0316 µM

Q: What about the viability, T/C [1] of the same molecule?
A: 58.2%

Q: And the viability, T/C [2]?
A: 78.2%

Q: What about the viability, T/C [3] of the same molecule?
A: 77.8%

Q: What about the viability, T/C [4] of the same molecule?
A: 63.1%

Q: What about the viability, T/C [5] of the same molecule?
A: 62.8%

Q: And the viability, T/C [6]?
A: 47.5%

Q: And the viability, T/C [7]?
A: 70.2%

Q: What about the viability, T/C [8] of the same molecule?
A: 57.9%

Q: And the viability, T/C [9]?
A: 53.4%

Q: What about the viability, T/C [10] of the same molecule?
A: 44.3%

Q: And the viability, T/C [11]?
A: 61.3%

Q: And the viability, T/C [12]?
A: 36.8%

Q: What about the viability, T/C [13] of the same molecule?
A: 52.1%

Q: And the viability, T/C [14]?
A: 50.3%

Q: What about the viability, T/C [15] of the same molecule?
A: 55.1%

Q: What about the viability, T/C [16] of the same molecule?
A: 48.8%

Q: What about the viability, T/C [17] of the same molecule?
A: 52.1%

Q: What about the viability, T/C [18] of the same molecule?
A: 36%

Q: And the viability, T/C [19]?
A: 53.2%

Q: And the viability, T/C [20]?
A: 59.2%

Q: And the viability, T/C [21]?
A: 59.6%

Q: What about the viability, T/C [22] of the same molecule?
A: 56.5%

Q: And the viability, T/C [23]?
A: 47.5%

Q: What about the viability, T/C [24] of the same molecule?
A: 28.1%

Q: And the viability, T/C [25]?
A: 50.4%

Q: And the viability, T/C [26]?
A: 46%

Q: What about the viability, T/C [27] of the same molecule?
A: 48.3%

Q: What about the viability, T/C [28] of the same molecule?
A: 50.5%

Q: And the viability, T/C [29]?
A: 38.1%

Q: What about the viability, T/C [30] of the same molecule?
A: 3.5%

Q: What about the viability, T/C [31] of the same molecule?
A: 40.7%

Q: What about the viability, T/C [32] of the same molecule?
A: 36.6%

Q: And the viability, T/C [33]?
A: 39.1%

Q: What about the viability, T/C [34] of the same molecule?
A: 29.9%

Q: What about the viability, T/C [35] of the same molecule?
A: 25%

Q: And the viability, T/C [36]?
A: 0.34%
